Experimental data as given in ChEMBL document CHEMBL1201862, “PubChem BioAssay data set” (2004).
Calls of active or inactive are those of the source.

Key:
[1] = target: Peroxisome proliferator-activated receptor gamma/Nuclear receptor coactivator 3 (Homo sapiens, UniProt P37231); assay: TR-FRET dose response biochemical High Throughput Screening assay for agonists of the steroid receptor coactivator 3 (SRC-3) recruitment by the peroxisome proliferator-activated receptor gamma (PPAR gamma): non-selective agonists. [Related pubchem assays: 1301 (Confirmation screen.), 1048 (Primary screen.)]; format: functional
[2] = target: Peroxisome proliferator-activated receptor gamma/Nuclear receptor coactivator 2 (Homo sapiens, UniProt P37231); assay: (§1) TR-FRET dose response biochemical High Throughput Screening assay for agonists of the steroid receptor coactivator 2 (SRC-2) recruitment by the peroxisome proliferator-activated receptor gamma (PPAR gamma): non-selective agonists. [Related pubchem assays: 1297, 1032 ]; format: functional
Chain of Peroxisome proliferator-activated receptor gamma/Nuclear receptor coactivator 2 (P37231 whole entry): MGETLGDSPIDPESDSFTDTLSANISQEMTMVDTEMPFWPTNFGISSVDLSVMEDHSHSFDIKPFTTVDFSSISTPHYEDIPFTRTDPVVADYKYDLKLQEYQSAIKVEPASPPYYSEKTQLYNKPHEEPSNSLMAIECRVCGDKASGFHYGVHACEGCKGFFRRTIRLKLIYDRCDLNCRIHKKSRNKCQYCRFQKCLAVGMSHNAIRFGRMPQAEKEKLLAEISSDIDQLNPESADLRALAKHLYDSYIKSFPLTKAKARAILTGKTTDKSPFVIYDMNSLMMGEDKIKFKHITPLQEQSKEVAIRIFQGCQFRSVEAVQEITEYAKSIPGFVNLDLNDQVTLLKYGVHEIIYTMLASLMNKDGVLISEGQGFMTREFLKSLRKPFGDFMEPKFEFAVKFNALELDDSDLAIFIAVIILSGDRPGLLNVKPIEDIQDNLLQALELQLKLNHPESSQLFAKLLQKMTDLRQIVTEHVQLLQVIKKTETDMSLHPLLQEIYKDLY
Chain of Peroxisome proliferator-activated receptor gamma/Nuclear receptor coactivator 2 (Q15596 whole entry, further chain): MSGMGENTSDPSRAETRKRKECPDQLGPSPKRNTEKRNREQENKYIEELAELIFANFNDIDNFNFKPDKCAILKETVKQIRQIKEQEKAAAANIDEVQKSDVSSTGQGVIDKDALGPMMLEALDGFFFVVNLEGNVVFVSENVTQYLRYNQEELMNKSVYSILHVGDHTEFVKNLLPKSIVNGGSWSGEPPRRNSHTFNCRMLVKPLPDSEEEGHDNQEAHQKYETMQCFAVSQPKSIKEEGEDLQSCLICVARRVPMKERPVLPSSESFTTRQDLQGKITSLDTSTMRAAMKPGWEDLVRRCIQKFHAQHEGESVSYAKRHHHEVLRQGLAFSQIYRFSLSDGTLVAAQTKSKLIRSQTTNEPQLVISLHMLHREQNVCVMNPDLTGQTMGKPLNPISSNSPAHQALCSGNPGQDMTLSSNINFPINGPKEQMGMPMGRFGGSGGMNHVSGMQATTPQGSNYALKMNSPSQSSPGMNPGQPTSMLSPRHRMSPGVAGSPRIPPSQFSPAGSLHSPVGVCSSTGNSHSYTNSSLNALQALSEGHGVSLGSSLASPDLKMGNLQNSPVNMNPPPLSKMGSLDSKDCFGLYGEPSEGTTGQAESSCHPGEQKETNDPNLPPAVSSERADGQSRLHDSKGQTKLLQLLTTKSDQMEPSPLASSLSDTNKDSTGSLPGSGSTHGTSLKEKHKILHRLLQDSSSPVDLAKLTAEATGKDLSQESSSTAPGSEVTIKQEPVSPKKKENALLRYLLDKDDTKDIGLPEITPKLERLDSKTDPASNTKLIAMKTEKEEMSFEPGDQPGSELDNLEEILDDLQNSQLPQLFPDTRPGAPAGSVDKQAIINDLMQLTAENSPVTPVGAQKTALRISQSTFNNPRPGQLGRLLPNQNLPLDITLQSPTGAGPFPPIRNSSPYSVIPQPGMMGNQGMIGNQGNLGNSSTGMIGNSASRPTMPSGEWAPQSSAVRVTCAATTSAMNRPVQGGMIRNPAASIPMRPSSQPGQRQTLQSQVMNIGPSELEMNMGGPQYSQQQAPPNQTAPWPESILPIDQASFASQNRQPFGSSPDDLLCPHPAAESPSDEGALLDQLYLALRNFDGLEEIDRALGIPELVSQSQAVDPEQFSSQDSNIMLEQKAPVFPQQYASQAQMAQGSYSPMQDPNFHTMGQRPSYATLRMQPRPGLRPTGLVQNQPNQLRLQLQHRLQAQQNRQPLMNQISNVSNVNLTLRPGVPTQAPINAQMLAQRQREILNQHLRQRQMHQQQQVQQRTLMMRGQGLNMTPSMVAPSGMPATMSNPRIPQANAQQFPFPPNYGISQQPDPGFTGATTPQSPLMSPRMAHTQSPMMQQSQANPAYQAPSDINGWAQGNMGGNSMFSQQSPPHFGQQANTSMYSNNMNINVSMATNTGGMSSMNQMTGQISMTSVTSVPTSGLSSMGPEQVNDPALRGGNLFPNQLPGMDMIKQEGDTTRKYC

[3] = target: Peroxisome proliferator-activated receptor gamma/Nuclear receptor coactivator 1 (Homo sapiens, UniProt P37231); assay: as §1, with “1 (SRC-1)” for “2 (SRC-2)”, “assays (depositor defined):AID1300, AID1808, AID504735, AID631]” for “assays: 1297, 1032 ]”; format: protein assay
Chain of Peroxisome proliferator-activated receptor gamma/Nuclear receptor coactivator 1 (P37231 whole entry): as the sequence (P37231 whole entry) above
Chain of Peroxisome proliferator-activated receptor gamma/Nuclear receptor coactivator 1 (Q15788 whole entry, further chain): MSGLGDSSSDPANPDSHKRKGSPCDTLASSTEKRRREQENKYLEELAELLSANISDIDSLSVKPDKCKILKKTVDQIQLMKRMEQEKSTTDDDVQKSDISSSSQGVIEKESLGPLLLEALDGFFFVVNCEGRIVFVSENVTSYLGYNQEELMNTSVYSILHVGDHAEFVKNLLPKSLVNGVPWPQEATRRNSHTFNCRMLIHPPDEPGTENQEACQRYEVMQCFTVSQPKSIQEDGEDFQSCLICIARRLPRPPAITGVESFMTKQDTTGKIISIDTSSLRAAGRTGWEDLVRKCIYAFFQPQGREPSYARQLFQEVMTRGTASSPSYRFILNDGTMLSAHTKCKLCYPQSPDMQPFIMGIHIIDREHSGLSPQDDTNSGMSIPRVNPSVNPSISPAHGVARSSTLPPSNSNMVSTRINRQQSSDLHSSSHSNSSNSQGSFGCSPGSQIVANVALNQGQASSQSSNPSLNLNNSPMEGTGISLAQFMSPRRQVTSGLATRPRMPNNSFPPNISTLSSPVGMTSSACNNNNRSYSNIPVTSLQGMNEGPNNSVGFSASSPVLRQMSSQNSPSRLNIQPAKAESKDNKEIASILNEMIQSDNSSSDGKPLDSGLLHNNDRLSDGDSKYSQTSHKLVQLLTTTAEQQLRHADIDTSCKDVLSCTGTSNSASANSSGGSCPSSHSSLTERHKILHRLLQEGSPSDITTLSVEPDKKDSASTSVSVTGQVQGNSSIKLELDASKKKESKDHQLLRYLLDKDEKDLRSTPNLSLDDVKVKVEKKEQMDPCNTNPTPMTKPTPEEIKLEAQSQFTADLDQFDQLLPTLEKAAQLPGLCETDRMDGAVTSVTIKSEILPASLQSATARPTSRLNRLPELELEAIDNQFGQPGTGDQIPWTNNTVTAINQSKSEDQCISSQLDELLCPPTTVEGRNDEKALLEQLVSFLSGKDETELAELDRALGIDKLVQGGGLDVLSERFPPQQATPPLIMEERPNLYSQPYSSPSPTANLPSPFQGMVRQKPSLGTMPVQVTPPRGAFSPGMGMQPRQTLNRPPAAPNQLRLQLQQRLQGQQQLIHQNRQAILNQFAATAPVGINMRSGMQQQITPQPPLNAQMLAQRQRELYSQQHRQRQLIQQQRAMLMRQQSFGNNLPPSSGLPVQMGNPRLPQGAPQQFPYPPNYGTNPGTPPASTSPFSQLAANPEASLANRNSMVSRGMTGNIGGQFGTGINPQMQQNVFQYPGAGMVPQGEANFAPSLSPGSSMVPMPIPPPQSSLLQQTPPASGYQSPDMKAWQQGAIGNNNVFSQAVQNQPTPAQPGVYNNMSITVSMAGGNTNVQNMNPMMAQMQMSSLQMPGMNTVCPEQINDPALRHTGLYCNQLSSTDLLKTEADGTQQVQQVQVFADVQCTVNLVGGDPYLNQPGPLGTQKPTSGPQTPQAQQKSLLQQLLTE

[4] = growth suppression of beta-catenin-knockout colon cells, dose response, cell-based, HCT116, human colon tumor (AID 1045); format: functional;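 note: HCT116 colon tumor cells with beta catenin knocked out; cells exposed to compound for 60 hours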
[5] = target: Paired box protein Pax-8 (Homo sapiens, UniProt Q06710); assay: inhibitors of PAX8-driven TPO luciferase reporter, dose response, RMG-I cells, cherry-pick (AID 687027); format: functional, cell-based;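 note: luciferase reporter driven by Pax8 target thyroperoxidase promoter measured by SteadyGlo luminescence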
Chain of Paired box protein Pax-8 (Q06710 whole entry): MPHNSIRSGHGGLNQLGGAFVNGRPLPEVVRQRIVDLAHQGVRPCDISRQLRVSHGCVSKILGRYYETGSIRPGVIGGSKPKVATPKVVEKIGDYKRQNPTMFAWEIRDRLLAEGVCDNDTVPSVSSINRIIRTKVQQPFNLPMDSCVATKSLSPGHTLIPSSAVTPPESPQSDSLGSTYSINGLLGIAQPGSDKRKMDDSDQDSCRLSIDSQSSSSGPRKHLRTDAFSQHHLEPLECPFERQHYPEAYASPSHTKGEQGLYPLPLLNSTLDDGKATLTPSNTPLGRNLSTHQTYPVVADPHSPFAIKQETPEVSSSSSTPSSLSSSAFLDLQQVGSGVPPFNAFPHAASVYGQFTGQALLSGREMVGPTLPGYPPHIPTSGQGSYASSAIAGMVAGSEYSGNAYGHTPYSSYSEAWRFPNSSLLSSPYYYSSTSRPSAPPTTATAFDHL

[6] = Luminescence Cell-Based Dose Retest to Confirm Inhibitors of Cancer Stem Cells. [Related pubchem assays (depositor defined):AID2717, AID2721]; format: functional; conditions: Homo sapiens
[7] = target: T1, Microphthalmia-associated transcription factor (Homo sapiens, UniProt O75030); assay: TRPM1 promoter luciferase signal decrease, dose response, MITF inhibitor project, cell-based, SK-MEL-5, cherry-picked, set 3 (AID 493073); format: functional
T1 sequence (O75030 whole entry): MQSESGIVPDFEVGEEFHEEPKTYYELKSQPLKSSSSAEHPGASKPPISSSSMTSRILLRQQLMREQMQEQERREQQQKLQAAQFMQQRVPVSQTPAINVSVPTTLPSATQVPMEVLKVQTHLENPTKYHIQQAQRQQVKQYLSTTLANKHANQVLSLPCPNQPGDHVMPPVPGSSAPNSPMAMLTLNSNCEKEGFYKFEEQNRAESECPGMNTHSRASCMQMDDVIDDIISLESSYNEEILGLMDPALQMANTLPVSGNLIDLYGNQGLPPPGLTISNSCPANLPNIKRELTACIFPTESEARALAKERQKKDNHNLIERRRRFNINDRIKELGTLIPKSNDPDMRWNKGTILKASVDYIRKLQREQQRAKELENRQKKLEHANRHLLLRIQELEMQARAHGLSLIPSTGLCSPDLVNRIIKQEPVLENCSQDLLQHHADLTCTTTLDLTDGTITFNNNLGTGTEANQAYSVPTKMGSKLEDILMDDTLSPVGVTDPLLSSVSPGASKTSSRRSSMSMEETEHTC

[8] = system: INS1; assay: beta cell apoptosis inhibitors, cytokine rescue, dose response, luminescence, retest (AID 449756); format: functional, cell-based; conditions: Rattus norvegicus;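 note: cell death triggered by IL-1 beta plus TNF-alpha plus IFN-gamma mixture; protective hits raise ATP signal compared with cytokine alone wells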
[9] = growth suppression of PTEN-null colon cells, dose response, cell-based, HCT116 PTEN knockout (AID 1047); format: functional;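 note: HCT116 colon tumor cells with PTEN knocked out; cells exposed to compound for 60 hours before readout; potency for loss of cell viability measured by luminescence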
[10] = cytotoxicity toward NIH3T3 fibroblasts, dose response, counter-screen, cell-based, ATP luminescence, mouse fibroblasts (AID 2010); format: functional;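 note: cells exposed to compound for about 90 hours before reading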
[11] = target: Melanocortin receptor 4 (Homo sapiens, UniProt P32245); assay: MC4R antagonist potency on cAMP, dose response, cell-based, TR-FRET, biased antagonists (AID 602298); format: functional;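 note: antagonist potency against agonist-stimulated cAMP production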
Chain of Melanocortin receptor 4 (P32245 whole entry): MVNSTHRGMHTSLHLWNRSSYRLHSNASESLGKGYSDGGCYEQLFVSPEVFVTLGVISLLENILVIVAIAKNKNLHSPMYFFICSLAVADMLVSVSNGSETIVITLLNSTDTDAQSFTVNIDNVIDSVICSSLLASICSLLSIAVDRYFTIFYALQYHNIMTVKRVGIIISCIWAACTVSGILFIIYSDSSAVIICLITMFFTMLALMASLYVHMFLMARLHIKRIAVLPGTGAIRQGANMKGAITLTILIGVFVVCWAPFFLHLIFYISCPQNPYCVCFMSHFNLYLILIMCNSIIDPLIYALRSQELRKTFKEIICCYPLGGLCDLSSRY

[12] = nonselective inhibitors of cellular cAMP signaling, dose response, counter-screen for MC4R biased antagonist project, cell-based, TR-FRET cAMP detection (AID 602305); format: functional;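 note: U2OS cells stimulated with forskolin near its EC80 as the cAMP inducer; potency is for inhibition of forskolin-stimulated cAMP signaling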
[13] = inhibitors of intracellular T. cruzi replication, confirmation, NIH3T3 host cells, beta-gal luminescence (AID 2044); format: functional, cell-based;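 note: intracellular parasites grown in NIH/3T3 mouse fibroblasts as host cells; luminescent beta-galactosidase reporter signal from transgenic T. cruzi replicating inside host cells; inhibitors lower the luminescence signal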
[14] = target: T2, Protein skinhead-1 (Caenorhabditis elegans, UniProt P34707); format: functional
T2 sequence (P34707 whole entry): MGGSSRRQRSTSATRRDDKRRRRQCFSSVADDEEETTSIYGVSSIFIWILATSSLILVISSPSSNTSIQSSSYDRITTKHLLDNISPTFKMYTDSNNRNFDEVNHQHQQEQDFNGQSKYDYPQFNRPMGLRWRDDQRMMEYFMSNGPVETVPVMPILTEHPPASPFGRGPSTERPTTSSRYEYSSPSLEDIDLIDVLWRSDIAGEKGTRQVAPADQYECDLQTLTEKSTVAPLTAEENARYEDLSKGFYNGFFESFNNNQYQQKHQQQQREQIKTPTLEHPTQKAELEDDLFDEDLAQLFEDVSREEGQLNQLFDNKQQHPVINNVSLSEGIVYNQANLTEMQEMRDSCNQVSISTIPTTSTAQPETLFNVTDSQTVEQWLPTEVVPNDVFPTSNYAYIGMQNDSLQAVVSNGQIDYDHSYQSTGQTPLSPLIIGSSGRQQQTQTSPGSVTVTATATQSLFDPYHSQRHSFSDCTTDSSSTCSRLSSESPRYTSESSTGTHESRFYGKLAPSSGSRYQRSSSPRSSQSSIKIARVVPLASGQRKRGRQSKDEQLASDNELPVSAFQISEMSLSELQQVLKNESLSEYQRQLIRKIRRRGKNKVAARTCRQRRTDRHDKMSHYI

[15] = target: T3, Short transient receptor potential channel 4 (Mus musculus, UniProt Q9QUQ5); assay: mouse TRPC4 channel inhibitors, dose response, cell-based, HEK293 TRPC4/mu-opioid, Fluo-4 calcium (AID 434942); format: functional;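 note: potency of inhibitors blocking the TRPC4 calcium response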
T3 sequence (Q9QUQ5 whole entry): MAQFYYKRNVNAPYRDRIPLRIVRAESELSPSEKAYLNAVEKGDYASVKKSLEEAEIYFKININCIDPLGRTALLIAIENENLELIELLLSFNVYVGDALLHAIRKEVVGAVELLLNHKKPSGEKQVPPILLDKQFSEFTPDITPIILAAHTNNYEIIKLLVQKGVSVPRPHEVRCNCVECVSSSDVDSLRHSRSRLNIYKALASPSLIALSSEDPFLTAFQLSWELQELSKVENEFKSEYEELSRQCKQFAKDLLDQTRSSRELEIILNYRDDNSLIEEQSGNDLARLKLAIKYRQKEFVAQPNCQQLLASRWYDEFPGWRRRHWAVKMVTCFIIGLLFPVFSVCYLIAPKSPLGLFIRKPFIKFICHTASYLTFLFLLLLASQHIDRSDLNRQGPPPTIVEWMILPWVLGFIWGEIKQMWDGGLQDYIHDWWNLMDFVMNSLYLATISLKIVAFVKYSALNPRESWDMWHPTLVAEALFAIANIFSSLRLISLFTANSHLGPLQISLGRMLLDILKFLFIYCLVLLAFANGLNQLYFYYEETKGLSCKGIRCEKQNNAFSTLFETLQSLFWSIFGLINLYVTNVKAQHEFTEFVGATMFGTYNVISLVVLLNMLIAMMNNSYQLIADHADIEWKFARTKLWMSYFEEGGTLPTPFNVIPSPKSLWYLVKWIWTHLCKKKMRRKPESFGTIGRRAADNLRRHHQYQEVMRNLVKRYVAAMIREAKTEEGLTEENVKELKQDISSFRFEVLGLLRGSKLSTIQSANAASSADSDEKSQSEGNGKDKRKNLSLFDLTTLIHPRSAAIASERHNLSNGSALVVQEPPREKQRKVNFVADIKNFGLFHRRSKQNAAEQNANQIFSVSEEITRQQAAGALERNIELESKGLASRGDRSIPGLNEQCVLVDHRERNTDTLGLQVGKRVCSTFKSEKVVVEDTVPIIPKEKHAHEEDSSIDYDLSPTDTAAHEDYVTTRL

[16] = target: T4, Streptokinase A (Streptococcus pyogenes serotype M1, UniProt P10520); assay: S. pyogenes streptokinase expression inhibitors, potency, dose response, plasminogen activation absorbance, OD405 (AID 1914); format: functional, Streptococcus pyogenes M1 GAS;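 note: secreted streptokinase activity via plasminogen activation per viability signal from cell pellet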
T4 sequence (P10520 whole entry): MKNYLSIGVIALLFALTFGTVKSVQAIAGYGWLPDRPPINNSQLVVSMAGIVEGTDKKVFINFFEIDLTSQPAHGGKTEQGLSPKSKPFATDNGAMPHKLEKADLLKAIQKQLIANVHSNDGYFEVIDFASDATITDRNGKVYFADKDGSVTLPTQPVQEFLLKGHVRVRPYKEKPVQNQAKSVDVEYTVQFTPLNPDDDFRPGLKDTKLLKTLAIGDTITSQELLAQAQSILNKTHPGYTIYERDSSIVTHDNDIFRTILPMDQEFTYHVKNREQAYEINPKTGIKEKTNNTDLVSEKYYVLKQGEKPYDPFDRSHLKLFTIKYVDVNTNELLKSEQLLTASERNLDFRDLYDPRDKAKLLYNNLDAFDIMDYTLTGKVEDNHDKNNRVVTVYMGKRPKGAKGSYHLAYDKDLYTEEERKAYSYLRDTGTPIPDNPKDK

[17] = system: Streptococcus sp. 'group A'; assay: growth inhibition of control SK(-) GAS strain, dose response, counter-screen for streptokinase expression inhibitor project, luminescence, kanamycin, BacTiterGlo, confirmation (AID 1900); format: functional, organism-based
[18] = system: Streptococcus; assay: Group A Streptococcus viability loss, dose response, counter-screen for streptokinase expression inhibitor project, luminescence, BacTiterGlo (AID 1915); format: functional, organism-based;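 note: potency for reduction of bacterial viability or growth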
[19] = inhibitors of firefly luciferase expression or activity, dose response, H4 neuroglioma cells, luminescence (AID 1990); format: functional, cell-based
[20] = inhibitors of SNCA 5'UTR-driven reporter translation, confirmation, H4 neuroglioma cells, luminescence (AID 1988); format: functional, cell-based
[21] = cytotoxicity in HEK-293T cells, dose response, cytotoxicity control for TCR NF-kB inhibitor project, luminescence, T-cell screen hits (AID 489026); format: functional, cell-based;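 note: cells exposed to compound about 14 hours before the viability readout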
[22] = Luminescence Cell-Based Dose Response HTS to Identify Inhibitors of 5'UTR Stem-Loop Driven Prion Protein mRNA Translation in H4 Neuroglioblastoma Cells. [Related pubchem assays: 1827 (Project Summary), 1813 (Primary HTS)]; format: functional
[23] = cells; format: functional, cell-based
[24] = cells; format: functional, cell-based; remark: listed apart in the source

Question: With `CSc1oc(-c2ccccc2)nc1S(=O)(=O)c1ccc(C)cc1` as the compound, how does the EC50 [1] read?
Answer: Its EC50 is > 79.4 µM (not active).

Question: What about the EC50 [2] of the same compound?
Answer: The EC50 was > 79.4 µM (not active).

Question: And the EC50 [3]?
Answer: Its EC50 is > 79.4 µM (inactive).

Question: With `Cc1ccc(NC(=O)/C=C/c2ccc([N+](=O)[O-])s2)c(C)c1` as the compound, how does the EC50 [4] read?
Answer: Its EC50 is 1 µM (active).

Question: And the AC50 [5]?
Answer: Its AC50 is 3.16 µM (active).

Question: What about the AC50 [6] of the same compound?
Answer: Its AC50 is 1.3 µM (active).

Question: What about the AC50 [7] of the same compound?
Answer: Its AC50 is 4.64 µM (active).

Question: What about the AC50 [8] of the same compound?
Answer: Its AC50 is 4.69 µM (active).

Question: And the EC50 [9]?
Answer: Its EC50 is 1.03 µM (active).

Question: Which results are given for `Cc1nnc(-c2cccc(Br)c2)c2cn(-c3cccc(Br)c3)nc12`?
Answer: EC50 [10]: > 60 µM (not active); IC50 [11]: > 64.6 µM (inactive); IC50 [12]: > 64.6 µM (inactive); EC50 [13]: 1.65 µM (active); IC50 [14]: > 100 µM (inactive)

Question: For `COCC(C)NC(C(=O)Nc1ccc(Cl)c([N+](=O)[O-])c1)c1ccccc1` (stereo unspecified), which EC50 [15] is on record?
Answer: Its EC50 is 5.96 µM (active).

Question: With `O=C(Nc1nccs1)c1cc(S(=O)(=O)N2CCOCC2)c(Cl)cc1Cl` as the compound, how does the IC50 [11] read?
Answer: The IC50 was > 64.6 µM (inactive).

Question: What about the IC50 [12] of the same compound?
Answer: The IC50 was > 64.6 µM (inactive).

Question: For `CSc1c(SCc2ccccc2)cnn(Cc2ccccc2)c1=O`, which EC50 [16] is on record?
Answer: The EC50 was > 150 µM (not active).

Question: What about the EC50 [1] of the same compound?
Answer: Its EC50 is > 79.4 µM (not active).

Question: What about the EC50 [17] of the same compound?
Answer: Its EC50 is 3.38 µM (active).

Question: And the EC50 [2]?
Answer: Its EC50 is 8.09 µM (active).

Question: And the EC50 [18]?
Answer: The EC50 was 34.3 µM (active).

Question: And the EC50 [3]?
Answer: Its EC50 is 2.68 µM (active).

Question: Which EC50 [19] does the source give for `CC1CCN(c2c(NCc3ccc(C(=O)N4CCc5ccccc54)cc3)c(=O)c2=O)CC1` here?
Answer: Its EC50 is > 60 µM (not active).

Question: What about the EC50 [20] of the same compound?
Answer: Its EC50 is 8.86 µM (active).

Question: What about the IC50 [21] of the same compound?
Answer: The IC50 was > 80 µM (inactive).

Question: What about the EC50 [22] of the same compound?
Answer: The EC50 was 12.3 µM (active).

Question: What does the source list for `O=C(COC(=O)C(Cc1ccccc1)NC(=O)c1cccs1)NCc1ccccc1` (stereo unspecified)?
Answer: IC50 [11]: 38.6 µM (inactive); IC50 [12]: > 64.6 µM (inactive)

Question: With `O=C(N/N=C\c1cc(Br)ccc1O)c1ccc(S(=O)(=O)N2CCCCC2)cc1` as the compound, how does the EC50 [10] read?
Answer: The EC50 was > 60 µM (not active).

Question: What about the EC50 [23] of the same compound?
Answer: The EC50 was > 350 µM (not active).

Question: What about the AC50 [6] of the same compound?
Answer: The AC50 was 1.8 µM (active).

Question: And the EC50 [13]?
Answer: The EC50 was 0.758 µM (active).

Question: What about the AC50 [7] of the same compound?
Answer: Its AC50 is 1.78 µM (active).

Question: What about the EC50 [24] of the same compound?
Answer: Its EC50 is > 350 µM (not active).

Question: And the AC50 [8]?
Answer: Its AC50 is 0.809 µM (active).
